Results: publication PMC10787677, “Characterization of a novel aspartic protease from Trichoderma asperellum for the preparation of duck blood peptides” (Applied Microbiology and Biotechnology, 2024)
Non-standard residues stand in square brackets, D forms with d. Residues, ends and D or L forms follow the SMILES beside them. *: point of attachment. Sta = CC(C)C[C@H](N)[C@@H](O)CC(=O)O; Isovaleryl = CC(C)CC(=O)*

Biological target: T1, TaproA1 (Trichoderma asperellum, UniProt A0A6V8QUH5)
T1 construct: mature enzyme about 36 kDa; precursor 521 residues; purified on Q-Sepharose Fast Flow
Test: residual casein hydrolysis after […] min preincubation, Folin phenol read-out
Assay type: biochemical
Details: read-out: Relative activity ^b (%)

T1 sequence (A0A6V8QUH5 189-517 limits assumed): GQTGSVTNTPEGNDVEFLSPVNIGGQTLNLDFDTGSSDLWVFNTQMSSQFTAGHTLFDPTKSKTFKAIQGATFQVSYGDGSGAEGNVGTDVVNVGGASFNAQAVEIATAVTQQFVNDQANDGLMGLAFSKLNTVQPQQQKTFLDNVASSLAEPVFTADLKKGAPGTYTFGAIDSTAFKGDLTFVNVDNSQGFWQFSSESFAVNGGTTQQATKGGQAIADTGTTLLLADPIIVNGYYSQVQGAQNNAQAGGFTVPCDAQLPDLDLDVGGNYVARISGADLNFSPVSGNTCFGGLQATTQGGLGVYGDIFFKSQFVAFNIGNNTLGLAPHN

For `CC(C)CC(=O)N[C@H](C(=O)N[C@H](C(=O)N[C@@H](CC(C)C)[C@@H](O)CC(=O)N[C@@H](C)C(=O)N[C@@H](CC(C)C)[C@@H](O)CC(=O)O)C(C)C)C(C)C` [Pepstatin A] (Isovaleryl-VV[Sta]A[Sta]-OH), the activity at 10 µM was 0.7 ± 0.1%.
